Laboratory results published in patent US6353006B1, “Substituted 2-arylimino heterocycles and compositions containing them, for use as progesterone receptor binding agents” (Bayer Corporation, priority 1999, dated 2002).

Row | SMILES | melting point [°C]
1 | CCc1cc(C(=O)O)ccc1N=C1SCC2(CCCC2)N1C1CCCC1 [Entry 253, 2-(4-carboxy-2-ethylphenylimino)-1-cyclopentyl-3-thia-1-azaspiro[4.4]nonane] | 208 to 209
2 | Cc1cc([N+](=O)[O-])ccc1N=C1SC(=O)CN1CC(C)C [Entry 310, 2-(2-methyl-4-nitrophenylimino)-3-isobutyl-1,3-thiazolidin-5-one] | 152
3 | CCc1cc(C#N)ccc1N=C1OCC(C)(C)N1C1CCCC1 [Entry 319, 2-(4-cyano-2-ethylphenylimino)-3-cyclopentyl-4,4-dimethyl-1,3-oxazolidine] | 112 to 114

Results, then the molecule that gave them:

Row | melting point [°C] | SMILES
4 | 135 to 136 | CCc1cc(C=C(C#N)C#N)ccc1N=C1SCC2(CCCC2)N1C1CCCC1 [Entry 271, 2-(2-ethyl-4-(2,2-dicyanovinyl)phenylimino)-1-cyclopentyl-3-thia-1-azaspiro[4.4]nonane]
5 | 114 to 115 | CCc1cc(C(C)=O)ccc1N=C1SCC2(CCCC2)N1C1CCCC1 [Entry 255, 2-(4-acetyl-2-ethylphenylimino)-1-cyclopentyl-3-thia-1-azaspiro[4.4]nonane]
6 | 141 to 142 | CCc1cc(/C=C/[N+](=O)[O-])ccc1N=C1SCC2(CCCC2)N1C1CCCC1 [Entry 269, 2-(2-ethyl-4-((1E)-2-nitrovinyl)phenylimino)-1-cyclopentyl-3-thia-1-azaspiro[4.4]nonane]
